Source: US5202324A, “Imidazopyridazines” (Takeda Chemical Industries, Ltd., priority 1989, dated 1993)

Tested on: bronchoconstriction induced by PAF
Test: Effect on bronchoconstriction induced by platelet activating factor (PAF) in guinea pigs (Konzett-Rossler method)
Format: in vivo, guinea pig (male Hartley)
Conditions: Cavia porcellus, po, drug 30 mg/kg orally in 5% gum arabic solution 1 hour before PAF (1 μg/kg i.v.), recorded for 15 minutes
Description: Effect on Bronchoconstriction Induced by Platelet Activating Factor (PAF) in Guinea Pigs
Male Hartley guinea pigs (body weight 500 g) were used. The bronchoconstriction reaction in the guinea pig which has intravenously received PAF (1 μg/Kg) was measured by the Konzett-Rossler method. The trachea of the guinea pig with its back fixed was incised under anesthesia condition with urethane (intraperitoneal injection, 1.5 g/kg) and connected with an artificial respirator via a cannula. The branch of the tracheal cannula was connected with a transducer (7020 type, Ugobasile). Air was sent to the trachea at the volume of 3-7 ml/stroke, at the rate of 70 strokes/min. at load pressure of 10 cm H2 O to lung and overflowed air volume was recorded with Rectegraph (Recte-Hori-8s, Sanei Sokuki) via the transducer. After the guinea pig was treated with galamine (1 mg/kg, i.v.), PAF (1 μg/kg) dissolved in a physiological saline solution was administered to the guinea pig via a jugular venous cannula and the bronchoconstriction reaction induced thereby was recorded for 15 minutes. The drug (30 mg/kg) suspended in a 5% gum arabic solution was administered orally 1 hour before the injection of PAF.

SMILES | inhibition in vivo at 30 mg/kg
CNS(=O)(=O)CCCSc1ccc2nccn2n1 [Example 3] | 41%
O=S(=O)(CCCSc1ccc2nccn2n1)NC1CC1 [Example 6] | 47%
